Reference: PubChem BioAssay (NCI)
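1) Cells in 96-well plates. 2) Compound, 48 h, 5 concentrations. 3) Linear interpolation between surrounding doses. 4) Unreached endpoint = highest concentration. GI50: concentration for 50% inhibition of growth. TGI marks complete inhibition of growth.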

What was measured:
Test in all cases: DTP human tumour cell line panel, 48 h
[1] = test system: SF-539 CNS
[2] = test system: NCI-H226 lung
[3] = test system: EKVX NSCLC
[4] = test system: OVCAR-8 ovarian
[5] = test system: SNB-75 CNS
[6] = test system: SNB-19 CNS
[7] = test system: TK-10 renal
[8] = test system: NCI/ADR-RES ovarian
[9] = test system: SK-MEL-5 melanoma
[10] = test system: NCI-H23 lung
[11] = test system: KM12 colon
[12] = test system: SN12C renal
[13] = test system: SF-268 CNS
[14] = test system: RPMI-8226 leukemia
[15] = test system: ACHN renal
[16] = test system: A549 NSCLC
[17] = test system: HS 578T breast
[18] = test system: LOX IMVI melanoma
[19] = test system: U251 CNS
[20] = test system: HL-60(TB) leukemia
[21] = test system: SW-620 colon
[22] = test system: SK-MEL-2 melanoma
[23] = test system: SR leukemia
[24] = test system: K-562 leukemia
[25] = test system: RXF 393 renal
[26] = test system: MALME-3M melanoma
[27] = test system: HT29 colon
[28] = test system: MDA-MB-435
[29] = test system: HOP-62 NSCLC
[30] = test system: UACC-62 melanoma
[31] = test system: UACC-257 melanoma
[32] = test system: BT-549 breast
[33] = test system: HOP-92 NSCLC
[34] = test system: HCT-116 colon
[35] = test system: MOLT-4 leukemia
[36] = test system: UO-31 renal
[37] = test system: OVCAR-5 ovarian
[38] = test system: M14 melanoma
[39] = test system: HCC-2998 colon
[40] = test system: 786-0 renal
[41] = test system: NCI-H460 lung
[42] = test system: MDA-MB-231 breast
[43] = test system: IGROV1 ovarian
[44] = test system: MCF7 breast
[45] = test system: HCT-15 colon
[46] = test system: COLO 205 colon
[47] = test system: NCI-H522 lung
[48] = test system: DU-145 prostate
[49] = test system: PC-3 prostate
[50] = test system: OVCAR-3 ovarian
[51] = test system: T-47D breast
[52] = test system: SK-MEL-28 melanoma
[53] = test system: SF-295 CNS
[54] = test system: SK-OV-3 ovarian
[55] = test system: CCRF-CEM leukemia
[56] = test system: A498 renal
[57] = test system: OVCAR-4 ovarian
[58] = test system: CAKI-1 renal

SMILES: COP(=O)(OC)C(NC(c1ccccc1)c1ccccc1)c1ccc2c(c1)OCO2 (stereo unspecified)
- GI50 [1]: 20.2 µM
- TGI [1]: 36 µM
- GI50 [2]: 30.7 µM
- TGI [2]: 66.6 µM
- GI50 [3]: 31.4 µM
- TGI [3]: 92.6 µM
- GI50 [4]: 35.2 µM
- TGI [4]: > 100 µM
- GI50 [5]: 30.5 µM
- TGI [5]: 67.2 µM
- GI50 [6]: 23.4 µM
- TGI [6]: 47.4 µM
- GI50 [7]: 44.5 µM
- TGI [7]: > 100 µM
- GI50 [8]: 30.3 µM
- TGI [8]: > 100 µM
- GI50 [9]: 16.9 µM
- TGI [9]: 30.5 µM
- GI50 [10]: 31.5 µM
- TGI [10]: 88.3 µM
- GI50 [11]: 30 µM
- TGI [11]: 81.3 µM
- GI50 [12]: 24 µM
- TGI [12]: 53.8 µM
- GI50 [13]: 29.2 µM
- TGI [13]: 91.8 µM
- GI50 [14]: 14.1 µM
- TGI [14]: 32.3 µM
- GI50 [15]: 29.1 µM
- TGI [15]: > 100 µM
- GI50 [16]: 27.3 µM
- TGI [16]: > 100 µM
- GI50 [17]: 27.4 µM
- TGI [17]: 59.9 µM
- GI50 [18]: 16.4 µM
- TGI [18]: 31.4 µM
- GI50 [19]: 30.8 µM
- TGI [19]: > 100 µM
- GI50 [20]: 22.8 µM
- TGI [20]: 56.5 µM
- GI50 [21]: 31.7 µM
- TGI [21]: > 100 µM
- GI50 [22]: 23.8 µM
- TGI [22]: 50.2 µM
- GI50 [23]: 24.4 µM
- TGI [23]: 48.9 µM
- GI50 [24]: 20.7 µM
- TGI [24]: 65 µM
- GI50 [25]: 23 µM
- TGI [25]: 50.1 µM
- GI50 [26]: 27.4 µM
- TGI [26]: 58.9 µM
- GI50 [27]: 19.9 µM
- TGI [27]: 51.5 µM
- GI50 [28]: 33.3 µM
- TGI [28]: 94.8 µM
- GI50 [29]: 21.5 µM
- TGI [29]: 52.2 µM
- GI50 [30]: 16 µM
- TGI [30]: 32.2 µM
- GI50 [31]: 31.4 µM
- TGI [31]: 89.7 µM
- GI50 [32]: 20.6 µM
- TGI [32]: 38.8 µM
- GI50 [33]: 12 µM
- TGI [33]: 26.3 µM
- GI50 [34]: 16.3 µM
- TGI [34]: 35.3 µM
- GI50 [35]: 7.85 µM
- TGI [35]: 29.4 µM
- GI50 [36]: 21.8 µM
- TGI [36]: 53.9 µM
- GI50 [37]: 54.6 µM
- TGI [37]: > 100 µM
- GI50 [38]: 23.1 µM
- TGI [38]: 61.3 µM
- GI50 [39]: 33.5 µM
- TGI [39]: > 100 µM
- GI50 [40]: 29.5 µM
- TGI [40]: 74.9 µM
- GI50 [41]: 20.1 µM
- TGI [41]: 42 µM
- GI50 [42]: 14 µM
- TGI [42]: 37.9 µM
- GI50 [43]: 22 µM
- TGI [43]: 73.6 µM
- GI50 [44]: 26 µM
- TGI [44]: 79 µM
- GI50 [45]: 30.1 µM
- TGI [45]: 95.1 µM
- GI50 [46]: 52.2 µM
- TGI [46]: > 100 µM
- GI50 [47]: 24.5 µM
- TGI [47]: 70 µM
- GI50 [48]: 26.6 µM
- TGI [48]: 60.5 µM
- GI50 [49]: 16.4 µM
- TGI [49]: 66.3 µM
- GI50 [50]: 22.1 µM
- TGI [50]: 50.2 µM
- GI50 [51]: 27 µM
- TGI [51]: 84.7 µM
- GI50 [52]: 21.5 µM
- TGI [52]: 44.8 µM
- GI50 [53]: 29.5 µM
- TGI [53]: > 100 µM
- GI50 [54]: 40.7 µM
- TGI [54]: > 100 µM
- GI50 [55]: 2.26 µM
- TGI [55]: 29.7 µM
- GI50 [56]: 22.8 µM
- TGI [56]: 44.2 µM
- GI50 [57]: 30.5 µM
- TGI [57]: 89.9 µM
- GI50 [58]: 33.2 µM
- TGI [58]: 89 µM
